One compound from US20260048072A1, “PHARMACEUTICAL PREPARATION FOR INTRANASAL ADMINISTRATION AND PREPARATION METHOD THEREFOR” (CHENGDU EASTON BIOPHARMACEUTICALS CO., LTD., priority 2023, published 2026) can be followed below.

Molecules are shown by their SMILES.

Holding throughout (format): in vivo
What all share (conditions): beagle dogs, nasal spray, result in words

The nature of series [1]: Experimental Example 2: pharmacokinetic experiment, nalmefene in plasma by LC-MS/MS. From the text:
Beagle dogs (body weight of 12 kg-15 kg, supplier: Suzhou Xishan Zhongke Experimental Animal Co., Ltd., license number: SCXK(Su)2018-0001)
• EDTA-K2 anticoagulant tube: brand Kangweishi (KWS) • Liquid chromatograph (Shimadzu, LC-30AD), mass spectrometer (SCIEX Triple Quad 4500) • LC-MS/MS detection conditions: • Instrument: UPLC-MS/MS (AB API 4500) • MS conditions: Electrospray ionization (ESI) source, positive ion detection […]
Experimental method of nasal administration for Example 1: Four beagle dogs were administered with 1 dose of a nasal spray preparation of nalmefene hydrochloride by nasal spray respectively, and 2 mL of blood was collected from the forelimb vein before administration and at 2 min, 5 min, 10 min, 15 min, 30 min, 45 min, 1 h, 2 h, 4 h and 6 h after administration. […] The content of nalmefene in the plasma was detected by LC-MS/MS. […]
Experimental method of intramuscular injection for Comparative Example 2: Four beagle dogs were administered 1 dose of an injection of nalmefene hydrochloride (1.5 ml: 1.5 mg) intramuscularly respectively, and 2 mL of blood was collected from the forelimb vein before administration and at 2 min, 5 min, 10 min, 15 min, 30 min, 45 min, 1 h, 2 h, 4 h and 6 h after administration. […] The content of nalmefene in the plasma was detected by LC-MS/MS.

Series [2] is described as follows: Experimental Example 3: pharmacokinetic experiment, nalmefene in plasma by LC-MS/MS. Here is the method: Beagle dogs (body weight of 8 kg-10 kg, supplier: Chengdu Dossy Experimental Animal Co., Ltd., license number: SCXK(1)2019-031)
(§1) • EDTA-K2 anticoagulant tube: brand Kangweishi (KWS) • Liquid chromatograph (Shimadzu, LC-30AD), mass spectrometer (SCIEX Triple Quad 4500) • LC-MS/MS detection conditions: • Instrument: UPLC-MS/MS (AB API 4500) • MS conditions: Electrospray ionization (ESI) source, positive ion detection
(§2) HPLC conditions: mobile phase A: 90% water+10% acetonitrile+0.1% formic acid+2 mM ammonium acetate; mobile phase B: 90% acetonitrile+10% water+0.1% formic acid+2 mM ammonium acetate; chromatographic column: Waters ACQUITY UPLC BEH C18 (2.1×50 mm, 1.7 μm); flow rate: 0.50 mL/min; chromatographic column temperature: 40° C.
Experimental method of nasal administration for Example 3: Four beagle dogs were administered with 1 dose of a nasal spray preparation of nalmefene hydrochloride by nasal spray respectively, and 2 mL of blood was collected from the forelimb vein before administration and at 2 min, 5 min, 10 min, 15 min, 30 min, 45 min, 1 h, 2 h, 4 h and 6 h after administration. The blood sample was placed in an EDTA-K2 anticoagulant tube, centrifuged at 4500 r/min for 10 min, and 50 μL of plasma was separated into a centrifuge tube. […] The content of nalmefene in the plasma was detected by LC-MS/MS. […]

The nature of series [3]: Experimental Example 4: pharmacokinetic experiment, nalmefene in plasma by LC-MS/MS.
Description: Beagle dogs (body weight of 8 kg-10 kg, supplier: Suzhou Xishan Zhongke Experimental Animal Co., Ltd. and Chengdu Dossy Experimental Animal Co., Ltd., license numbers: SCXK(Su)2018-0001 and SCXK(1)2019-031)
as §1, §2
Experimental method of nasal administration for Example 9: Four beagle dogs were administered with 1 dose of a nasal spray preparation of nalmefene hydrochloride by nasal spray respectively, and 2 mL of blood was collected from the forelimb vein before administration and at 2 min, 5 min, 10 min, 15 min, 30 min, 45 min, 1 h, 2 h, 4 h and 6 h after administration. […] The content of nalmefene in the plasma was detected by LC-MS/MS. […]

Take `CCCCCCCCCCCCOP(=O)([O-])OCC[N+](C)(C)C` [dodecylphosphocholine, Dodecylphosphocholine]: the “absorption of nalmefene hydrochloride in the nasal cavity, compared with not using dodecylphosphocholine” value in series [1] was “significantly accelerate”. For the same compound, the “effect to accelerate the absorption of nalmefene hydrochloride in the nasal cavity compared with n-dodecyl-β-D-maltoside” value in series [2] and in series [3] was “superior” in each case.
